Data from patent publication US3995055A, “Method for treating peptic ulcers” (priority 1975, dated 1976).
“Also recorded” adds a separate entry of the source. Counter-ions that a name gives are not always drawn.

Experiments:
Shay ulcers [1] = experiment: Shay Ulcer Test by Intraperitoneal Administration; assay type: in vivo, Donryu rats; details: Rattus norvegicus, ip, 18 h, read-out: Inhibitory Ratio; for inhibition in vivo at 350 mg/kg: 350 mg/Kg intraperitoneally in 0.5% CMC
Method: (§1) Donryu rats each weighing 200 to 240 g (six in each group) were starved for 48 hours, and ligated at a portion of the duodenum near the pylorus by the method of Shay et al (see Gastroenterology, 54, 43 (1945)). Immediately after the ligation, DV-1006 was orally administered to the rats at a dosage of 300 mg/Kg. After 18 hours, the abdomen of each of the rats was incised, and the stomach was removed.
Some typical compounds of formula (I) were tested on Shay ulcers in the same way as described in Example 2 except that each of the compounds was suspended in a 0.5% aqueous solution of carboxymethyl cellulose and administered intraperitoneally.

Shay ulcers [2] = experiment: Shay Ulcer Test (oral administration); assay type: in vivo, Donryu rats; details: for Effectiveness on Shay Ulcer (aggressive factors): Table 1; for inhibitory ratio (Shay ulcer): 18 hours after ligation
Method: as §1
In the same way as described above, gefarnate, a conventional anti-ulcer agent, was administered to the rats at a dosage of 100 mg/Kg.

drug ulcers = experiment: Drug Ulcer Test (indomethacin, aspirin, phenylbutazone); assay type: in vivo, rats; details: for Effectiveness on Drug Ulcer (defensive factors): Table 1; for Inhibitory Ratio, Aspirin ulcer: aspirin 300 mg/Kg; for Inhibitory Ratio, Indomethacin ulcer: indomethacin 25 mg/Kg; for Inhibitory Ratio, Phenylbutazone ulcer: phenylbutazone 200 mg/Kg
Method: Female rats each weighing about 150 g (5 in each group) were starved for 20 hours, and then DV-1006 was administered to the rats. After one hour, 25 mg/Kg of indomethacin, 300 mg/Kg of aspirin and 200 mg/Kg of phenylbutazone, respectively, were administered orally to the rats and the rats were further starved for 5 hours. The stomach of each of the rats was removed, and the ulcer index was measured.
For comparison, the above procedure was repeated except that gefarnate and aluminum sucrose sulfate were used in their basic customary dosages.

acetic ulcers = experiment: 10% Acetic Acid Ulcer Test; assay type: in vivo, Wistar rats; details: for Effectiveness on Acetic Ulcer (defensive factors): Table 1
Method: Each of the drugs shown in FIG. 1 was orally administered to the rats once a day for 8 days starting on the date on which the acetic acid was injected. On the ninth day the rats were killed under ether anaesthesia. The stomach of each rat was removed, and opened along the greater curvature. The ulcer index was measured by means of slide calipers, and then the glandular stomach tissue was homogenized by adding a suitable amount of a physiological salt solution, and centrifuged for 20 minutes at a rate of 12,000 rpm.

[3] = system: clamping-cortisone ulcers; experiment: Clamping-Cortisone Ulcer Test; assay type: in vivo, rats; details: for Effectiveness on Clamping-Cortisone Ulcer (defensive factors): Table 1
Method: (§2) Each of the drugs shown in FIG. 2 was administered orally once in a day for 14 days starting on the day on which the aluminum metal plate was removed. On the fifteenth day, the rats were killed under ether anaesthesia, and the ulcer index and the mucopolysaccharase activity in the stomach tissue were measured.
Then, 5 mg/Kg of hydrocortisone acetate was intramuscularly injected into the rats once a day for 7 days starting on the day on which the aluminum metal plate was removed. Each of the agents shown in FIG. 3 was administered orally to the rats once a day for 11 days starting on the day on which the administration of hydrocortisone acetate was stopped.

clamping ulcers = experiment: Clamping Ulcer Test; assay type: in vivo, Wistar male rats; details: for Effectiveness on Clamping Ulcer (defensive factors): Table 1
Method: as §2

[4] = General anticholinergic activities
Source text: (§3) Incidentally, it appears from the above table that anticholinergic agents produce […] those produced by DV-1006. […] From a pharmacological standpoint, DV-1006 has the activity selectively inhibiting the secretion of pepsin without affecting acidity and the activity of pepsin itself.

gastric ulcers = experiment: Clinical test in gastric ulcer patients; assay type: in vivo
Method: Further, in order to confirm the anti-ulcer activities of the compounds of the general formula (I), clinical tests were also conducted using DV-1006 as a representative example of the compounds of the general formula (I). These clinical tests were performed on patients with gastric ulcers at National Zentsuji Hospital in Tokushima Prefecture, Japan.
30 gastric ulcer patients at the Internal Treatment Department of National Zentsuji Hospital in Tokushima Prefecture, Japan, who had been so diagnosed by X-ray and endoscopes, were treated for 8 weeks using an oral administration of DV-1006 at a dosage of 200 mg three times per day. At the end of the 8-week period, 21 patients were completely cured (70%), the condition of 7 patients had been alleviated (23%).

pepsin secretion = experiment: Pepsin Secretion Inhibition Test (beef bouillon pot-au-feu soup stimulating test); assay type: in vivo, Heidenhain pouch dogs; details: 150 mg/Kg orally, second stimulation 75 minutes later; FIG. 4
Method: After oral administration (first stimulation) of 70 ml of a mixture (100 ml) of 6 g of beef bouillon and 6 g of pot-au-feu soup, gastric juice was extracted every 15 minutes. When the secretion of gastric juice returned almost to the value before the stimulation, DV-1006 was orally administered at a dosage of 150 mg/Kg. The second stimulation was given 75 minutes later in the same way as in the first stimulation, and the amount of gastric juice secreted and the amount of pepsin secreted were measured [by the modified method of Anson-Maskey (see J. Gen. Physiol., 16, 59 (1932))] with the passage of time.

gastric juice = experiment: Mode of activity: action on gastric juice; design: key: the symbol (+) shows that a particular agent has the indicated activity; the symbol (-) shows that the particular agent does not have the indicated activity; symbol (±) shows that the particular agent has a slight activity
Source text: As stated above, DV-1006 acts very strongly both on the aggressive factors and the defensive factors as compared with conventional anti-ulcer agents. […] In the treatment of peptic ulcers, the action of an agent on the gastric juice can be classified roughly into the following five categories: […]

carbachol stimulation = experiment: Carbachol stimulation in the Gosh and Schild method; assay type: in vivo
Source text: as §3

Compound: NC[C@H]1CC[C@H](C(=O)Oc2ccc(CC(N)C(=O)O)cc2)CC1 (stereo partly shown)
- inhibition in vivo at 350 mg/kg (Shay ulcers [1]): 71%

Compound: NC[C@H]1CC[C@H](C(=O)Oc2ccc(C=CC(=O)O)cc2)CC1
- inhibition in vivo at 350 mg/kg (Shay ulcers [1]): 76%

Compound: CN1[C@@H]2CC[C@H]1C[C@@H](OC(=O)C(CO)c1ccccc1)C2 (stereo partly shown) [atropine sulfate]
- Effectiveness on Shay Ulcer (aggressive factors) (Shay ulcers [2]): +
- Effectiveness on Drug Ulcer (defensive factors) (drug ulcers): -
- Effectiveness on Acetic Ulcer (defensive factors) (acetic ulcers): +

Compound: NC[C@H]1CC[C@H](C(=O)Oc2ccccc2)CC1
- inhibition in vivo at 350 mg/kg (Shay ulcers [1]): 84%

Compound: NC[C@H]1CC[C@H](C(=O)Oc2ccc(C(=O)O)cc2)CC1
- inhibition in vivo at 350 mg/kg (Shay ulcers [1]): 71%

Compound: NC[C@H]1CC[C@H](C(=O)Oc2ccc3ccccc3c2)CC1
- inhibition in vivo at 350 mg/kg (Shay ulcers [1]): 84%

Compound: COc1cc(C=O)ccc1OC(=O)[C@H]1CC[C@H](CN)CC1
- inhibition in vivo at 350 mg/kg (Shay ulcers [1]): 84%

Compound: NC[C@H]1CC[C@H](C(=O)Oc2ccc(CCC(=O)O)cc2)CC1 [drawing 3]
- inhibition in vivo at 350 mg/kg (Shay ulcers [1]): 70%

Compound: CC(C)=CCC/C(C)=C/CC/C(C)=C/CCC(=O)OC/C=C(\C)CCC=C(C)C [gefarnate]
- inhibitory ratio (Shay ulcer) (Shay ulcers [2]; 100 mg/Kg orally): 83%
- Effectiveness on Shay Ulcer (aggressive factors) (Shay ulcers [2]): -
- Inhibitory Ratio, Aspirin ulcer (drug ulcers; 100 mg/Kg p.o.): 42.8%
- Inhibitory Ratio, Indomethacin ulcer (drug ulcers; 100 mg/Kg p.o.): 29.0%
- Inhibitory Ratio, Phenylbutazone ulcer (drug ulcers; 100 mg/Kg p.o.): 31.5%
- Effectiveness on Drug Ulcer (defensive factors) (drug ulcers): +
- Effectiveness on Clamping-Cortisone Ulcer (defensive factors) [3]: +
- Effectiveness on Clamping Ulcer (defensive factors) (clamping ulcers): +
- Effectiveness on Acetic Ulcer (defensive factors) (acetic ulcers): -

Compound: NC[C@H]1CC[C@H](C(=O)Oc2ccc(CCC(=O)O)cc2)CC1 [DV-1006, 4'-(2-carboxyethyl)phenyl.trans-4-aminomethylcyclohexane carboxylate]
- general anticholinergic activities [4]: does not show general anticholinergic activities
- side-effects in patients (gastric ulcers; oral 200 mg three times per day, 8 weeks): No side-effects were observed
- curing effect on peptic ulcers (gastric ulcers; orally for several days at 300 to 1200 mg/day): very marked curing effect
- amount of gastric juice secreted (pepsin secretion): reduced
- pepsin secretion (pepsin secretion): markedly inhibited
- inhibitory ratio (Shay ulcer) (Shay ulcers [2]; 300 mg/Kg orally, method of Adami et al.): 100%
- Effectiveness on Shay Ulcer (aggressive factors) (Shay ulcers [2]): +
- Inhibitory Ratio, Aspirin ulcer (drug ulcers; 300 mg/Kg p.o.): 65.3%
- Inhibitory Ratio, Indomethacin ulcer (drug ulcers; 300 mg/Kg p.o.): 30.2%
- Inhibitory Ratio, Phenylbutazone ulcer (drug ulcers; 300 mg/Kg p.o.): 70.0%
- Effectiveness on Drug Ulcer (defensive factors) (drug ulcers): +
- Effectiveness on Clamping-Cortisone Ulcer (defensive factors) [3]: +
- action on clamping-cortisone ulcers ([3]; model of chronic ulcers): especially strong action
- action on the activity of β-glucuronidase in stomach tissue ([3]; oral once a day for 11 days, twentieth day, FIG. 3): especially significant inhibitory action
- Action on Gastric Juice: Amount of Gastric Juice (gastric juice; activity of controlling gastric juice): +
- Action on Gastric Juice: Acids Activity (gastric juice; inhibitory action on acids): -
- Action on Gastric Juice: Pepsin Activity (gastric juice; inhibitory action on the activity of pepsin itself): -
- Action on Gastric Juice: Acid Secretion (gastric juice; inhibitory action on the secretion of acids): ±
- Action on Gastric Juice: Pepsin Secretion (gastric juice; inhibitory action on the secretion of pepsin): +
- Effectiveness on Clamping Ulcer (defensive factors) (clamping ulcers): +
- action on β-glucuronidase in stomach tissue (clamping ulcers; oral once a day for 14 days, fifteenth day, FIG. 2): especially significant inhibitory action
- dose-response of action on acetic acid ulcers (acetic ulcers; FIG. 1): showed a dose-response
- Effectiveness on Acetic Ulcer (defensive factors) (acetic ulcers): +
- activity of the mucopolysaccharase in the ulcer portion (acetic ulcers; glandular stomach tissue, ninth day, FIG. 1): reduced
- action on ulcers caused by acetic acid (visual ulcer indices) (acetic ulcers; oral once a day for 8 days, ninth day, FIG. 1): marked inhibitory action; also recorded: especially strong action
- inhibitory activity on carbachol stimulation (carbachol stimulation): does not exhibit any inhibitory activity

Compound: aluminum sucrose sulfate
- Effectiveness on Shay Ulcer (aggressive factors) (Shay ulcers [2]): +
- Inhibitory Ratio, Aspirin ulcer (drug ulcers; 1000 mg/Kg p.o.): 38.6%
- Inhibitory Ratio, Indomethacin ulcer (drug ulcers; 1000 mg/Kg p.o.): 40.0%
- Inhibitory Ratio, Phenylbutazone ulcer (drug ulcers; 1000 mg/Kg p.o.): 38.0%
- Effectiveness on Drug Ulcer (defensive factors) (drug ulcers): +
- Effectiveness on Clamping-Cortisone Ulcer (defensive factors) [3]: -
- Effectiveness on Clamping Ulcer (defensive factors) (clamping ulcers): +
- Effectiveness on Acetic Ulcer (defensive factors) (acetic ulcers): +

Compound: NC[C@H]1CC[C@H](C(=O)Oc2ccc(Cl)cc2)CC1
- inhibition in vivo at 175 mg/kg (Shay ulcers [1]; 175 mg/Kg intraperitoneally in 0.5% CMC): 62%

Compound: NC[C@H]1CC[C@H](C(=O)Oc2ccc(-c3ccccc3)cc2)CC1
- inhibition in vivo at 350 mg/kg (Shay ulcers [1]): 58%
